Assay results from ChEMBL document CHEMBL2413039, “Novel N-hydroxyfurylacrylamide-based histone deacetylase (HDAC) inhibitors with branched CAP group (Part 2)” (Bioorg Med Chem, 2013).
pEC50, pIC50: −log10 of the molar value. Converted amounts (≈) assume the structure as drawn.

Assays:
A549 = test: cells; type: functional, cell-based; conditions: Homo sapiens, A549, 48 h
PC-3 = test: cells; type: functional, cell-based; conditions: Homo sapiens, PC-3, 48 h
HCT-116 = test: cells; type: functional, cell-based; conditions: Homo sapiens, HCT-116, 48 h
[1] = target: T1, Protein deacetylase HDAC6 (Homo sapiens, UniProt Q9UBN7)
T1 sequence (Q9UBN7 whole entry): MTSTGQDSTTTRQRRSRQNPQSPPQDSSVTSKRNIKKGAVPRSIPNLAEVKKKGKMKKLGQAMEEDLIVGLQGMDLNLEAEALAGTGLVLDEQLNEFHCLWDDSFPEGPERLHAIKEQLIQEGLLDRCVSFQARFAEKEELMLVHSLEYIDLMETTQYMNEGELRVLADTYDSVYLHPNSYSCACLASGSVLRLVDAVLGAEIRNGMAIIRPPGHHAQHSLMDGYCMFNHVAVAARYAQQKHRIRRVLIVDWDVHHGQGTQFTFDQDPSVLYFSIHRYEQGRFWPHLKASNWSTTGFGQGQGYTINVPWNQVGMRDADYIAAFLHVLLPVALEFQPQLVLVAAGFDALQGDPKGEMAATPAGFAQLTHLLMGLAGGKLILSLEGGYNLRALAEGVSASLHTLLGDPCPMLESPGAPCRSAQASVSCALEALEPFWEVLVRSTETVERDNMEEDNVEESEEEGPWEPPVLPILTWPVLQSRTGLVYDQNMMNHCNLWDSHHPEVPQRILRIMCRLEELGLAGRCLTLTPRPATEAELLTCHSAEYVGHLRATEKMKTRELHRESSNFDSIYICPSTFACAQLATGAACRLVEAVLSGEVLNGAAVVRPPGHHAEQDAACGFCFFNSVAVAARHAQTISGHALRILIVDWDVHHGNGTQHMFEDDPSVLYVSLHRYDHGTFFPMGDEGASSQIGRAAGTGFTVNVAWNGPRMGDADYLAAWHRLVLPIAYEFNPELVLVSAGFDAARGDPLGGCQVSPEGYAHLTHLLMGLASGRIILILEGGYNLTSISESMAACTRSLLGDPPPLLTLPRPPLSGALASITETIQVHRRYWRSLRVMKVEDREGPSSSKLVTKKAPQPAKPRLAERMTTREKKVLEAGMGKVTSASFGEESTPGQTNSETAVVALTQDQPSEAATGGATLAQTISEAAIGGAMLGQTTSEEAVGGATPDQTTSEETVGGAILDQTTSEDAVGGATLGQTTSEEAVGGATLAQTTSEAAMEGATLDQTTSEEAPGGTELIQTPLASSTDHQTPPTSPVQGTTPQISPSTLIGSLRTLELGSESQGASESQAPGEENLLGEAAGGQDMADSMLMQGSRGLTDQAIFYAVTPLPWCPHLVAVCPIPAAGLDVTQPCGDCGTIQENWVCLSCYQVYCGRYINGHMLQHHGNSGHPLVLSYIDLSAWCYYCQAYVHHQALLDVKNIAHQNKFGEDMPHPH

[2] = Partition coefficient, log D of the compound at pH 7.4 by Avdeef-Tsinman potentiometric titration method; type: physicochemical; conditions: octanol/water
Homo sapiens [3] = species on record: Homo sapiens; test: Selectivity ratio of IC50 for human recombinant HDAC1 to human recombinant HDAC6
Homo sapiens [4] = species on record: Homo sapiens; test: Selectivity ratio of IC50 for human recombinant HDAC4 to human recombinant HDAC6
Histone deacetylase 4 = Histone deacetylase 4 (Homo sapiens, UniProt P56524); test: Inhibition of human recombinant HDAC4 using p53 residues 379-382 (RHKKAc) as substrate
Histone deacetylase 4, sequence (P56524 whole entry, the tested form may be a part): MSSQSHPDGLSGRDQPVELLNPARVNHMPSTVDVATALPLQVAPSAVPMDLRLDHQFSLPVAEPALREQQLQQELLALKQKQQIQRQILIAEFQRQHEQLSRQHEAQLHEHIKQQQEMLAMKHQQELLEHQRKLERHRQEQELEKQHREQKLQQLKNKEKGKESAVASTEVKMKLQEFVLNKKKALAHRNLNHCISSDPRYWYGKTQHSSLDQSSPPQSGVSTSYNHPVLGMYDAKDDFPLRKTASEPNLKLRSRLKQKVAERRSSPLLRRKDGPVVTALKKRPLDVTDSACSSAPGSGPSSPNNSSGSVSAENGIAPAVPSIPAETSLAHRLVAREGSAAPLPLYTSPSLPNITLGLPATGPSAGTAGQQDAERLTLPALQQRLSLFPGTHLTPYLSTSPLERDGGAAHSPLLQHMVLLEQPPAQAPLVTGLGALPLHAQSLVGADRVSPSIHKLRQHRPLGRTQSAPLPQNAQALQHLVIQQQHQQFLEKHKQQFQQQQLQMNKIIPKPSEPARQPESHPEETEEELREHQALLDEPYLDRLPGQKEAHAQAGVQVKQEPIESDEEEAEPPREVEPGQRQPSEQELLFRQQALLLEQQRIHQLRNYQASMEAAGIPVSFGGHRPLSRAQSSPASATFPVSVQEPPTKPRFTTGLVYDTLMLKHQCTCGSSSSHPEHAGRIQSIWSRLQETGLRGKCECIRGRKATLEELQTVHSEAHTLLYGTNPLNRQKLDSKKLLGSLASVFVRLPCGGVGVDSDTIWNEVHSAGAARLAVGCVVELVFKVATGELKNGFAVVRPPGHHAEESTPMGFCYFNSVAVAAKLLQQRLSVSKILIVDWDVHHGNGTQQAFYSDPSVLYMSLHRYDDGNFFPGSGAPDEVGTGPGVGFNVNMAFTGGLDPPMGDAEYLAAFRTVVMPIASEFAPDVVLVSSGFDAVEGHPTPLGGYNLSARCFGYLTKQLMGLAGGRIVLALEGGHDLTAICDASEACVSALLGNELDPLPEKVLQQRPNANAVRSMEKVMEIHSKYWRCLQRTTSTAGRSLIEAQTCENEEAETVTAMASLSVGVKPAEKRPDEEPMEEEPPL

HepG2 = test: cells; type: functional, cell-based; conditions: Homo sapiens, HepG2, 48 h
Histone deacetylase 1 = Histone deacetylase 1 (Homo sapiens, UniProt Q13547); test: Inhibition of human recombinant HDAC1 using p53 residues 379-382 (RHKKAc) as substrate
Histone deacetylase 1, sequence (Q13547 whole entry, the tested form may be a part): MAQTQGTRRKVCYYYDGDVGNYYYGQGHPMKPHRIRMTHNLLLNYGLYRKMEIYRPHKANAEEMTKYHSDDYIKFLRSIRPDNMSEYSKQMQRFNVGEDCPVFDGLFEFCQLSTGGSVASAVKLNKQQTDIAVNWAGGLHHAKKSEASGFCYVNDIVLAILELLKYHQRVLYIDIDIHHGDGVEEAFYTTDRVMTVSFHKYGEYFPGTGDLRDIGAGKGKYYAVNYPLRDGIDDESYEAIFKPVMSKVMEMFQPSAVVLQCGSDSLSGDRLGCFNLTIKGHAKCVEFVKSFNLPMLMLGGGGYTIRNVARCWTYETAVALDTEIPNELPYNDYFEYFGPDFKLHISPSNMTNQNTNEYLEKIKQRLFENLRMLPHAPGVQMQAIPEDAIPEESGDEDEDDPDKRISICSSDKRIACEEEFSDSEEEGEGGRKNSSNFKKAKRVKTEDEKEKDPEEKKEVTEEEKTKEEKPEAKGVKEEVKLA

[5] = Intrinsic aqueous solubility of the compound at pH 7.4 by Avdeef-Tsinman potentiometric titration method; type: physicochemical; conditions: read-out: Intrinsic_solubility
Histone deacetylase = type: protein assay, Homo sapiens; conditions: hela

pEC50 (A549)	pEC50 (PC-3)	pEC50 (HCT-116)	pIC50 [1]	logD [2]	Ratio IC50 (Homo sapiens [3])	Ratio IC50 (Homo sapiens [4])	pIC50 (Histone deacetylase 4)	pEC50 (HepG2)	pIC50 (Histone deacetylase 1)	solubility [5] [µM]	IC50 (Histone deacetylase) [µM]	SMILES
4.84	4.68	4.74	6.64	2.97	20	30.9	5.14	4.61	5.33	2300 (≈ 755 µg/mL)	0.54	CCCCN(Cc1ccccc1)Cc1ccc(/C=C/C(=O)NO)o1
4.63	4.60	4.60	6.74	2.54	28.1	60	4.97	4.78	5.31	2800 (≈ 880 µg/mL)	0.17	CCCN(Cc1ccccc1)Cc1ccc(/C=C/C(=O)NO)o1
5.18	4.37	6.33	–	5.28	–	–	–	5.40	–	1900 (≈ 731 µg/mL)	2.55	CCCCCCCCN(Cc1ccccc1)Cc1ccc(/C=C/C(=O)NO)o1
4.42	3.98	5.20	6.60	1.95	21.4	42.3	4.97	< 3.78	5.26	3000 (≈ 901 µg/mL)	0.13	CCN(Cc1ccccc1)Cc1ccc(/C=C/C(=O)NO)o1
4.01	< 3.86	4.92	6.37	1.62	29.7	26.3	4.95	3.89	4.90	4000 (≈ 1270 µg/mL)	0.17	O=C(/C=C/c1ccc(CN(CCO)Cc2ccccc2)o1)NO
5.08	4.80	5.40	–	1.8	–	–	–	4.65	–	3110 (≈ 1220 µg/mL)	0.089	O=C(/C=C/c1ccc(CN(CCO)Cc2ccc(-c3ccccc3)cc2)o1)NO
4.57	4.73	4.55	5.33	–	3.83	11.3	4.28	4.18	4.75	–	0.84	Cc1ccc(OCCN(CCc2ccc3c(c2)OCO3)Cc2ccc(/C=C/C(=O)NO)o2)cc1
